Consider 20 compounds from US4711245A, “Sensor for components of a liquid mixture” (Genetics International, Inc., priority 1983, dated 1987).

The nature of data set [1]: dc cyclic voltammetry of ferrocene derivatives (redox potential). Type of data set: physicochemical. The following applies: for Eo: vs a standard calomel electrode, phosphate buffer at pH 7.0.
Data set [2] deals with T1, glucose oxidase (Aspergillus niger, UniProt P13006). Briefly: substrate kinetics of glucose oxidase (relative rate, Km). Type of data set: biochemical. The following applies: substrates for glucose oxidase; β-D-glucose 100.
Data set [3] is described as follows: spectrophotometric measurement (E, cm^-1 M^-1). It counts as physicochemical.
Description: All optical spectra were recorded with a Pye-Unicam SP8 200 spectrophotometer with the sample and reference solutions in matched quartz micro-cuvettes of path length 1 cm.
Data set [4] deals with T2, glucose enzyme electrode (glucose oxidase) (Aspergillus niger, UniProt P13006).
T2 construct: purchased Boehringer Mannheim
Briefly: steady-state current response of the 1,1'-dimethylferrocene/glucose oxidase enzyme electrode (interfering substances, KM'). Conditions: for interference to the electrodes response to glucose: added at normal blood concentration.

The target in data set [5] is T1, glucose oxidase. The following applies: non-immobilized enzyme; cited from earlier work.
The conditions of data set [6]: vs NHE; cited from earlier work.
The target of data set [7] is T1, glucose oxidase. The following applies: cited from earlier work.
Data set [8] concerns the target T1, glucose oxidase. Type of data set: biochemical. The following applies: pH 7.

Where a name gives a salt, the structure may show the parent alone.

T1 sequence (P13006 23-605): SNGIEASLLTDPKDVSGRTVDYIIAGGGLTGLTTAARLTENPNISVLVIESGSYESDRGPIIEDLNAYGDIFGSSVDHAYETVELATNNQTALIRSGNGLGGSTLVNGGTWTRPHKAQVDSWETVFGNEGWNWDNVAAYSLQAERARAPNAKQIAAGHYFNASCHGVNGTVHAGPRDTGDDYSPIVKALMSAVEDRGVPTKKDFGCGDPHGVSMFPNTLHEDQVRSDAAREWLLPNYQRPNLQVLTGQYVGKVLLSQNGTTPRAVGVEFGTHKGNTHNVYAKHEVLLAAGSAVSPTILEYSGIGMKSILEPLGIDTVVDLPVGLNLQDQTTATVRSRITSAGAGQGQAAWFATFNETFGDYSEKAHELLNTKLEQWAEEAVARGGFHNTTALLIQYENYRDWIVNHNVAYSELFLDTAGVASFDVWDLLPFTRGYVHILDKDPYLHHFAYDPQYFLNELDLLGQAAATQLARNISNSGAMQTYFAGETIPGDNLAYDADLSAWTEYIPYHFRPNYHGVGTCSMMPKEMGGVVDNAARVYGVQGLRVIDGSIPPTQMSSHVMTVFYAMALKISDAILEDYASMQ
T2 sequence (P13006 23-605 limits assumed): as the sequence (P13006 23-605) above

Regarding 1,1'-dimethylferrocene [1,1'-dimethyl-], in data set [1], the Eo is given as 100 mV.

Regarding “1,1'-ferrocene dicarboxylic acid [1,1'-dicarboxylic acid]”, in data set [1] (Example 4, procedure of Example 3, saturated calomel reference), the “Eo'” value is reported as “+420 mV”. This compound had an Eo in data set [1] of 385 mV.

Turning to 6-methyl-D-glucose, on glucose oxidase [2], the “Relative Rate” value is 2.

With `OC[c-]1cccc1.OC[c-]1cccc1.[Fe+2]` [1,1'bis(hydroxymethyl)-], the Eo in data set [1] came out at 224 mV. Moreover, in data set [3], the E came to 385 cm⁻¹ M⁻¹.

Turning to `OC[C@H]1OC(O)C[C@@H](O)[C@@H]1O` (stereo partly drawn) [2-deoxy-D-glucose], the “Relative Rate” value at glucose oxidase [2] is 25.

In the case of `OC[C@H]1OC(O)[C@@H](O)[C@@H](O)[C@@H]1O` (stereo partly drawn) [D-mannose], the “Relative Rate” value on glucose oxidase [2] was found to be 1.

For `OC1OC[C@@H](O)[C@H](O)[C@H]1O` (stereo partly drawn) [D-xylose], in data set [4] (8 mM glucose), the “interference to the electrodes response to glucose” value (from here on “interference”) was “did not cause any observable interference”.

In the case of `OC[C@H]1OC(O)[C@H](O)[C@@H](O)[C@@H]1O` (some centres unmarked) [Glucose], the Km in data set [4] (glucose oxidase immobilized on the prototype ferrocene-based electrodes, kinetically-controlled, read-out: apparent Michaelis-Menten constant KM') is 30 to 40 mM; at glucose oxidase [5], 3 mM.

As for `O=C1O[C@H]([C@@H](O)CO)C(O)=C1O` [L-ascorbate], the “mean increase in current” value in data set [4] (8 mM glucose, final concentration of 0.13 mM) is listed as “ca. 4.0%”.

Consider `Cl.N[C@@H](CS)C(=O)O` [L-cysteine HCl], for which, in data set [4] (8 mM glucose), the “interference” value is given as “did not cause any observable interference”.

Compound `Cl[c-]1cccc1.[Fe+2].c1cc[cH-]c1` [chloro-] yielded an Eo in data set [1] of 345 mV.

Turning to `[Fe+2].c1cc[cH-]c1.c1cc[cH-]c1` [ferrocene], the Eo in data set [1] was found to be 165 mV. For the same compound, in data set [3], the E is 335 cm⁻¹ M⁻¹. Moreover, the redox potential entry in data set [6] was “+422 mV”.

In the case of `O=O` [molecular oxygen], on glucose oxidase [7], the “ks, rate of reaction of the natural electron acceptor with glucose oxidase” value was 10^6 M^-1 S^-1.

Consider `N[C@@H](CCC(=O)N[C@@H](CS)C(=O)NCC(=O)O)C(=O)O` [reduced glutathione], for which the “interference” value in data set [4] (8 mM glucose) is recorded as “did not cause any observable interference”.

Take `O=CO` [sodium formate]: the “interference” value in data set [4] (8 mM glucose) is “did not cause any observable interference”.

As to `OC[C@H]1O[C@H](O)[C@H](O)[C@@H](O)[C@@H]1O` [α-D-glucose], at glucose oxidase [2], the “Relative Rate” value turned out to be 0.6.

As to `OC[C@H]1O[C@H](O)[C@H](O)[C@@H](O)[C@H]1O` [α-galactose], the “interference” value in data set [4] (8 mM glucose) is “did not cause any observable interference”.

With `OC[C@H]1O[C@H](O)[C@@H](O)[C@@H](O)[C@@H]1O` [α-mannose], the “interference” value in data set [4] (8 mM glucose) is recorded as “did not cause any observable interference”.

Turning to `OC[C@H]1O[C@@H](O)[C@H](O)[C@@H](O)[C@@H]1O` [β-D-glucose], the “Relative Rate” value at glucose oxidase [2] is reported as 100.

Regarding vinyl ferrocene [vinyl-], the “Rates of glucose oxidase oxidation” value on glucose oxidase [8] was 18. For the same compound, the “Eo/mV vs SCE” value in data set [1] (pH 7) is recorded as 250 mV.
